Laboratory results as given in patent US10842892B2, “Methods and apparatus for synthesizing imaging agents, and intermediates thereof” (Lantheus Medical Imaging, Inc., priority 2010, dated 2020).
“And” between values parts separate entries of the source, which are not always exact repeats. Equal entries are not always repeated.

What was measured:
healthy adults = assay: whole-organ biodistribution and residence times by whole-body PET; format: in vivo, human; conditions: for Mean Percent Administered Dose, Brain / Mean Percent Administered Dose, GI Stomach Wall / Mean Percent Administered Dose, Heart Wall / Mean Percent Administered Dose, Kidneys / Mean Percent Administered Dose, Liver / Mean Percent Administered Dose, Marrow (lumbar) / Mean Percent Administered Dose, Salivary / Mean Percent Administered Dose, Spleen / Mean Percent Administered Dose, Thyroid / Mean Percent Administered Dose, Urinary Bladder / Mean Percent Administered Dose, Whole Body: N = 12, decay corrected
Procedure: Whole-body PET imaging from head to mid thigh was performed at protocol-specified time-windows.
The attenuation corrected transverse image data slice planes were combined into a single three-dimensional image matrix for each subject and each time point using custom software. These images were then divided into 6 image sets (“anterior”, “posterior”, “salivary”, “thyroid”, “source”, and “full”) of combined coronal plane image data for each subject at each time point, grouping organs with similar anterior to posterior depths. This was done to optimize the ROI creation, and minimize background contribution to the organs contained in each combined coronal plane image. The “anterior” images contained stomach wall, heart wall, and urinary bladder. The “posterior” images contained kidneys, lumbar spine, and spleen (when visible). The “salivary” images contained the salivary glands (parotid and submandibular). The “thyroid” images contained the thyroid. The “full” images combined all of the coronal image planes that contained subject image data and was used for quantification of the brain and liver. The “source” images contained the calibration source.
Absolute radioactivity was determined by normalizing ROI sums by a calibration factor derived from the calibration source. Region counts were also adjusted for activity containing underlying and overlying tissue that was not part of the organ or tissue being quantified by utilization of background regions of interest. Total body region counts were also corrected for off body background counts. Appropriate normalization of region sizes for organ and adjacent regions were made. Unobstructed regions of organs with significant overlap from other activity containing organs were also employed where necessary. In order to estimate the activity in the lower legs (which were not imaged), a region of interest on the upper thigh was utilized. Activities were also normalized where necessary to account for 100% of the injected activity, and to insure conservative (slight over-estimates) determination of absorbed dose.
Kinetic data for brain, heart wall, kidneys, liver, red marrow (lumbar spine regions were utilized), salivary glands, spleen, stomach wall, thyroid, and urinary bladder for the subjects in the study were determined using image quantification methodology. Absolute activity was converted to fractional dose by dividing by the total activity administered. Organ and tissue data were fit using non-linear least-squares regression with sums of exponentials of the form shown in Equation 1, where f and λ are the model parameters that are determined in the fitting process, Fij(t) is the fraction of the total injected activity, t is the time post injection, i is the i^th ROI, j is the j^th subject, and k is the k^th exponential term. Between one and four exponential terms were employed, as appropriate.
The regression was performed using custom software that determines initial parameter values based on the temporal variation of the kinetic data, and the use of pre-tabulated estimates for various time activity scenarios as selected by the user. […] Remainder of Body residence times were determined by subtraction of appropriate organ residence times from whole body residence times. Urinary bladder residence times were determined using the parameters determined by fitting the whole body activity data with a urinary bladder model as implemented in the OLINDA/EXM software with 3.5 hour bladder voiding interval. Red marrow residence time was determined based on a region of interest drawn on a portion of the lumbar spine. The lumbar spine was assumed to contain 16.1% (International Commission on Radiological Protection (ICRP) Publication 23, Report of the Task Group on Reference Man. Pergamon Press. 1975, page 125) of the total red marrow.

[1] = early elimination of ^18F in urine; format: in vivo, human
Procedure: Urine collected pre-dose (Baseline), and all voids up to 8 hours post-dose were collected and assayed for ^18F. However, as in blood collection, the urine collection terminated near the 7-hour minimum specified in the protocol. Mean urinary excretion over the approximate 7-hour void interval was 4.83% ID with a % CV of 64.7 and a range of 0.64% ID to 12.41% ID. This finding is in reasonable agreement with cumulative urine excretion of 5% as measured with PET imaging.

[2] = N = 12, Void Interval = 3.5 hours
[3] = whole body coronal images, representative subject

## CC(C)(C)n1ncc(OCc2ccc(COCC[18F])cc2)c(Cl)c1=O [imaging agent 1, 2-t-butyl-4-chloro-5-[4-(2-(^18F)fluoroethoxymethyl)-benzyloxy]-2H-pyridazin-3-1]
Healthy adults; 0.17 hr post-dose
  Mean Percent Administered Dose, Brain: 8.3%
  Mean Percent Administered Dose, GI Stomach Wall: 2.5%
  Mean Percent Administered Dose, Heart Wall: 3.1%
  Mean Percent Administered Dose, Kidneys: 9.4%
  Mean Percent Administered Dose, Liver: 19.1%
  Mean Percent Administered Dose, Marrow (lumbar): 0.3%
  Mean Percent Administered Dose, Salivary: 0.6%
  Mean Percent Administered Dose, Spleen: 0.9%
  Mean Percent Administered Dose, Thyroid: 0.1%
  Mean Percent Administered Dose, Urinary Bladder: 0.3%
  Mean Percent Administered Dose, Whole Body: 100.0%
Healthy adults; 0.50 hr post-dose
  Mean Percent Administered Dose, Brain: 7.9%
  Mean Percent Administered Dose, GI Stomach Wall: 2.4%
  Mean Percent Administered Dose, Heart Wall: 3.2%
  Mean Percent Administered Dose, Kidneys: 6.5%
  Mean Percent Administered Dose, Liver: 18.0%
  Mean Percent Administered Dose, Marrow (lumbar): 0.3%
  Mean Percent Administered Dose, Salivary: 0.7%
  Mean Percent Administered Dose, Spleen: 0.6%
  Mean Percent Administered Dose, Thyroid: 0.1%
  Mean Percent Administered Dose, Urinary Bladder: 0.2%
  Mean Percent Administered Dose, Whole Body: 99.8%
Healthy adults; 0.83 hr post-dose
  Mean Percent Administered Dose, Brain: 7.3%
  Mean Percent Administered Dose, GI Stomach Wall: 2.2%
  Mean Percent Administered Dose, Heart Wall: 3.4%
  Mean Percent Administered Dose, Kidneys: 4.9%
  Mean Percent Administered Dose, Liver: 16.4%
  Mean Percent Administered Dose, Marrow (lumbar): 0.3%
  Mean Percent Administered Dose, Salivary: 0.6%
  Mean Percent Administered Dose, Spleen: 0.4%
  Mean Percent Administered Dose, Thyroid: 0.1%
  Mean Percent Administered Dose, Urinary Bladder: 0.3%
  Mean Percent Administered Dose, Whole Body: 99.7%
Healthy adults; 2.0 hr post-dose
  Mean Percent Administered Dose, Brain: 4.7%
  Mean Percent Administered Dose, GI Stomach Wall: 0.7%
  Mean Percent Administered Dose, Heart Wall: 2.4%
  Mean Percent Administered Dose, Kidneys: 1.6%
  Mean Percent Administered Dose, Liver: 7.5%
  Mean Percent Administered Dose, Salivary: 0.5%
  Mean Percent Administered Dose, Spleen: 0.3%
  Mean Percent Administered Dose, Thyroid: 0.1%
  Mean Percent Administered Dose, Urinary Bladder: 0.9%
  Mean Percent Administered Dose, Whole Body: 98.2%
Healthy adults; 2.5 hr post-dose
  Mean Percent Administered Dose, Brain: 4.1%
  Mean Percent Administered Dose, GI Stomach Wall: 0.7%
  Mean Percent Administered Dose, Heart Wall: 2.5%
  Mean Percent Administered Dose, Kidneys: 1.6%
  Mean Percent Administered Dose, Liver: 7.0%
  Mean Percent Administered Dose, Salivary: 0.5%
  Mean Percent Administered Dose, Spleen: 0.3%
  Mean Percent Administered Dose, Thyroid: 0.1%
  Mean Percent Administered Dose, Urinary Bladder: 1.1%
  Mean Percent Administered Dose, Whole Body: 98.1%
Healthy adults; 3.83 hr post-dose
  Mean Percent Administered Dose, Brain: 3.2%
  Mean Percent Administered Dose, GI Stomach Wall: 0.6%
  Mean Percent Administered Dose, Heart Wall: 2.1%
  Mean Percent Administered Dose, Kidneys: 1.2%
  Mean Percent Administered Dose, Liver: 4.5%
  Mean Percent Administered Dose, Salivary: 0.4%
  Mean Percent Administered Dose, Spleen: 0.3%
  Mean Percent Administered Dose, Thyroid: 0.1%
  Mean Percent Administered Dose, Urinary Bladder: 1.4%
  Mean Percent Administered Dose, Whole Body: 96.8%
Healthy adults; 4.5 hr post-dose
  Mean Percent Administered Dose, Brain: 2.9%
  Mean Percent Administered Dose, GI Stomach Wall: 0.6%
  Mean Percent Administered Dose, Heart Wall: 2.1%
  Mean Percent Administered Dose, Kidneys: 1.1%
  Mean Percent Administered Dose, Liver: 4.7%
  Mean Percent Administered Dose, Salivary: 0.4%
  Mean Percent Administered Dose, Thyroid: 0.1%
  Mean Percent Administered Dose, Urinary Bladder: 1.7%
  Mean Percent Administered Dose, Whole Body: 96.9%
Healthy adults; N = 12
  mean peak uptake, brain: approximately 8.3 % of the injected activity
  mean peak uptake, kidneys: approximately 9.4 % of the injected activity
  mean peak uptake, liver: approximately 19.1 % of the injected activity
Healthy adults; [2]
  Residence Time, Mean, Brain: 0.14 h and 0.138 h
  Residence Time, Mean, GI Stomach Wall: 0.033 h
  Residence Time, Mean, Heart Wall: 0.0728 h
  Residence Time, Mean, Kidneys: 0.0952 h
  Residence Time, Mean, Liver: 0.28 h and 0.277 h
  Residence Time, Mean, Red Marrow: 0.0886 h
  Residence Time, Mean, Remainder of Body: 1.8 h and 1.84 h
  Residence Time, Mean, Salivary: 0.0148 h
  Residence Time, Mean, Spleen: 0.0101 h
  Residence Time, Mean, Thyroid: 0.00331 h
  Residence Time, Mean, Urinary Bladder: 0.0265 h
Healthy adults; [3]
  high and sustained heart retention of ^18F, through time after injection: approximately 5 hours
  time of liver clearing after injection: approximately 2 hours
[1]; approximate 7-hour void interval
  Mean urinary excretion: 4.83 % ID
[1]; in vivo
  cumulative urine excretion as measured with PET imaging: 5%
